Reference: article PMC5218480 (PLoS ONE, 2017)

System: MV-4-11 cells
Assay: Gene expression microarray analysis (Affymetrix PrimeView) and GSEA
Format: cell-based, human
Design: RFU PODN (11730768_x_at) / Fold change /veh PODN (11730768_x_at) / RFU LINC00158 (11744669_a_at) / Fold change /veh LINC00158 (11744669_a_at) / RFU DUSP10 (11751237_a_at) / Fold change /veh DUSP10 (11751237_a_at) / RFU ID3 (11757404_x_at) / Fold change /veh ID3 (11757404_x_at) / RFU PLEKHG5 (11737974_s_at) / Fold change /veh PLEKHG5 (11737974_s_at) / RFU LRRC4B (11730491_at) / Fold change /veh LRRC4B (11730491_at) / RFU GIMAP4 (11747438_a_at) / Fold change /veh GIMAP4 (11747438_a_at) / RFU KRT8 (11758183_x_at) / Fold change /veh KRT8 (11758183_x_at) / RFU CNN1 (11734310_a_at) / Fold change /veh CNN1 (11734310_a_at) / RFU VPS37D (11726825_at) / Fold change /veh VPS37D (11726825_at) / RFU C10orf10 (11716522_x_at) / Fold change /veh C10orf10 (11716522_x_at) / RFU KIR2DL2 /// KIR2DL4 /// KIR2DL5A /// KIR2DL5B /// KIR2DS1 /// KIR2DS2 /// KIR2DS3 /// KIR2DS4 /// KIR3DL3 /// KIR3DL3 /// KIR3DS1 (11738374_at) / Fold change /veh KIR2DL2 /// KIR2DL4 /// KIR2DL5A /// KIR2DL5B /// KIR2DS1 /// KIR2DS2 /// KIR2DS3 /// KIR2DS4 /// KIR3DL3 /// KIR3DL3 /// KIR3DS1 (11738374_at) / RFU C1QL1 (11718748_at) / Fold change /veh C1QL1 (11718748_at) / RFU TMPRSS4 (11747572_a_at) / Fold change /veh TMPRSS4 (11747572_a_at) / RFU HAMP (11756126_x_at) / Fold change /veh HAMP (11756126_x_at) / RFU RNFT2 (11725882_a_at) / Fold change /veh RNFT2 (11725882_a_at) / RFU NR4A2 (11747474_a_at) / Fold change /veh NR4A2 (11747474_a_at) / RFU ABCC12 (11746883_a_at) / Fold change /veh ABCC12 (11746883_a_at) / RFU TMEM136 (11760407_x_at) / Fold change /veh TMEM136 (11760407_x_at) / RFU CLDN22 /// WWC2 (11732394_at) / Fold change /veh CLDN22 /// WWC2 (11732394_at) / RFU HLA-DPB1 (11760878_x_at) / Fold change /veh HLA-DPB1 (11760878_x_at) / RFU SPINT1 (11716480_a_at) / Fold change /veh SPINT1 (11716480_a_at) / RFU GAP43 (11754022_s_at) / Fold change /veh GAP43 (11754022_s_at) / RFU A4GNT (11735810_at) / Fold change /veh A4GNT (11735810_at) / RFU PRB3 (11715151_x_at) / Fold change /veh PRB3 (11715151_x_at) / RFU TUBB4B (11761932_at) / Fold change /veh TUBB4B (11761932_at) / RFU CAPN14 (11732068_a_at) / Fold change /veh CAPN14 (11732068_a_at) / RFU TMCC2 (11721928_a_at) / Fold change /veh TMCC2 (11721928_a_at) / RFU IRGQ (11745062_a_at) / Fold change /veh IRGQ (11745062_a_at) / RFU FAM174B (11720279_a_at) / Fold change /veh FAM174B (11720279_a_at) / RFU TMPRSS4 (11748680_a_at) / Fold change /veh TMPRSS4 (11748680_a_at) / RFU FAM212B (11763350_a_at) / Fold change /veh FAM212B (11763350_a_at) / RFU PLEKHG5 (11743358_a_at) / Fold change /veh PLEKHG5 (11743358_a_at) / RFU ZSCAN30 (11745921_a_at) / Fold change /veh ZSCAN30 (11745921_a_at) / RFU CMKLR1 (11741424_a_at) / Fold change /veh CMKLR1 (11741424_a_at) / RFU LOC101060620 /// MAPK8IP1 (11723275_at) / Fold change /veh LOC101060620 /// MAPK8IP1 (11723275_at) / RFU SPTSSB (11747773_x_at) / Fold change /veh SPTSSB (11747773_x_at) / RFU PRSS12 (11739890_at) / Fold change /veh PRSS12 (11739890_at) / RFU BIN1 (11741810_x_at) / Fold change /veh BIN1 (11741810_x_at) / RFU WNT11 (11732464_a_at) / Fold change /veh WNT11 (11732464_a_at) / RFU C10orf10 (11716521_a_at) / Fold change /veh C10orf10 (11716521_a_at) / RFU C5orf56 (11738089_at) / Fold change /veh C5orf56 (11738089_at) / RFU CYB561 (11721691_x_at) / Fold change /veh CYB561 (11721691_x_at) / RFU ANKRD19P (11752326_a_at) / Fold change /veh ANKRD19P (11752326_a_at) / RFU OR2T12 /// OR2T33 /// OR2T8 (11738714_s_at) / Fold change /veh OR2T12 /// OR2T33 /// OR2T8 (11738714_s_at) / RFU VCAN (11748164_a_at) / Fold change /veh VCAN (11748164_a_at) / RFU JSRP1 (11732532_at) / Fold change /veh JSRP1 (11732532_at) / RFU KRTAP10-11 (11738290_x_at) / Fold change /veh KRTAP10-11 (11738290_x_at) / RFU MYO3A (11730013_a_at) / Fold change /veh MYO3A (11730013_a_at) / RFU EBF3 (11725865_a_at) / Fold change /veh EBF3 (11725865_a_at) / RFU CAMK2N1 (11719241_x_at) / Fold change /veh CAMK2N1 (11719241_x_at) / RFU C5orf56 (11738088_a_at) / Fold change /veh C5orf56 (11738088_a_at) / RFU OLFML3 (11715873_a_at) / Fold change /veh OLFML3 (11715873_a_at) / RFU LOC100653217 /// NTM (11731650_a_at) / Fold change /veh LOC100653217 /// NTM (11731650_a_at) / RFU MAPK11 (11762145_a_at) / Fold change /veh MAPK11 (11762145_a_at) / RFU FIZ1 (11724087_x_at) / Fold change /veh FIZ1 (11724087_x_at) / RFU OASL (11726364_x_at) / Fold change /veh OASL (11726364_x_at) / RFU SOX15 (11748057_x_at) / Fold change /veh SOX15 (11748057_x_at) / RFU CD79A (11719716_a_at) / Fold change /veh CD79A (11719716_a_at) / RFU HIST1H1D (11736915_at) / Fold change /veh HIST1H1D (11736915_at) / RFU CASKIN2 (11723855_a_at) / Fold change /veh CASKIN2 (11723855_a_at) / RFU LOC730098 (11760151_x_at) / Fold change /veh LOC730098 (11760151_x_at) / RFU OR4N2 (11742367_at) / Fold change /veh OR4N2 (11742367_at) / RFU PRRT2 (11749266_a_at) / Fold change /veh PRRT2 (11749266_a_at) / RFU SNX32 (11753110_a_at) / Fold change /veh SNX32 (11753110_a_at) / RFU CDHR5 (11726645_a_at) / Fold change /veh CDHR5 (11726645_a_at) / RFU RCAN1 (11760418_a_at) / Fold change /veh RCAN1 (11760418_a_at) / RFU FAM167A (11723789_a_at) / Fold change /veh FAM167A (11723789_a_at) / RFU FAM26E (11764081_at) / Fold change /veh FAM26E (11764081_at) / RFU ISYNA1 (11749810_s_at) / Fold change /veh ISYNA1 (11749810_s_at) / RFU ACY1 (11761880_at) / Fold change /veh ACY1 (11761880_at) / RFU 11764098_at / Fold change /veh 11764098_at / RFU SAMD14 (11745864_x_at) / Fold change /veh SAMD14 (11745864_x_at) / RFU NPB (11741838_a_at) / Fold change /veh NPB (11741838_a_at) / RFU TMPRSS6 (11731388_a_at) / Fold change /veh TMPRSS6 (11731388_a_at) / RFU KRTAP10-2 (11738614_at) / Fold change /veh KRTAP10-2 (11738614_at) / RFU ARHGAP8 /// PRR5-ARHGAP8 (11727945_x_at) / Fold change /veh ARHGAP8 /// PRR5-ARHGAP8 (11727945_x_at) / RFU KRTAP5-7 /// NADSYN1 (11734609_at) / Fold change /veh KRTAP5-7 /// NADSYN1 (11734609_at) / RFU RASL12 (11751679_a_at) / Fold change /veh RASL12 (11751679_a_at) / RFU CDKN2B (11736163_a_at) / Fold change /veh CDKN2B (11736163_a_at) / RFU PRF1 (11729649_at) / Fold change /veh PRF1 (11729649_at) / RFU, ZNF638 /// ZNF638-IT1 / Fold change vs veh, ZNF638 /// ZNF638-IT1 / RFU, PANK3 / Fold change vs veh, PANK3 / RFU, SH3YL1 / Fold change vs veh, SH3YL1 / RFU, ZEB2 / Fold change vs veh, ZEB2 / RFU, NRIP1 / Fold change vs veh, NRIP1 / RFU, PTTG1IP / Fold change vs veh, PTTG1IP / RFU, CAPN2 / Fold change vs veh, CAPN2 / RFU, MED14 / Fold change vs veh, MED14 / RFU, SNORA58 / Fold change vs veh, SNORA58 / RFU, C1orf63 / Fold change vs veh, C1orf63 / RFU, LRRFIP1 / Fold change vs veh, LRRFIP1 / RFU, NDUFAF7 / Fold change vs veh, NDUFAF7 / RFU, SLC12A2 / Fold change vs veh, SLC12A2 / RFU, IBTK / Fold change vs veh, IBTK / RFU, ESF1 / Fold change vs veh, ESF1 / Fold change vs veh, TMEM50B / RFU, TAOK1 / Fold change vs veh, TAOK1 / RFU, ACBD3 / Fold change vs veh, ACBD3 / RFU, TMA16 / Fold change vs veh, TMA16 / RFU, RWDD3 / Fold change vs veh, RWDD3 / RFU, BCAT1 / Fold change vs veh, BCAT1 / RFU, EDEM3 / Fold change vs veh, EDEM3 / RFU, TMEM33 / Fold change vs veh, TMEM33 / RFU, WDR75 / Fold change vs veh, WDR75 / RFU, AHCTF1 / Fold change vs veh, AHCTF1 / RFU, TFRC / Fold change vs veh, TFRC / RFU, ZDHHC17 / Fold change vs veh, ZDHHC17 / RFU, NOM1 / Fold change vs veh, NOM1 / RFU, ARL8B / Fold change vs veh, ARL8B / RFU, ZBTB11 / Fold change vs veh, ZBTB11 / RFU, TAMM41 / Fold change vs veh, TAMM41 / RFU, KIAA1704 /// LOC100996395 / Fold change vs veh, KIAA1704 /// LOC100996395 / RFU, ING1 / Fold change vs veh, ING1 / RFU, TRMT61B / Fold change vs veh, TRMT61B / RFU, FUBP3 / Fold change vs veh, FUBP3 / RFU, TP53 / Fold change vs veh, TP53 / RFU, TNKS2 / Fold change vs veh, TNKS2 / RFU, ZFP14 / Fold change vs veh, ZFP14 / RFU, ACTR2 / Fold change vs veh, ACTR2 / RFU, PPP3R1 / Fold change vs veh, PPP3R1 / RFU, PIK3R1 / Fold change vs veh, PIK3R1 / RFU, HNRNPA1 / Fold change vs veh, HNRNPA1 / RFU, RNF170 / Fold change vs veh, RNF170 / RFU, ZNF28 / Fold change vs veh, ZNF28 / RFU, RNGTT / Fold change vs veh, RNGTT / RFU, OGT / Fold change vs veh, OGT / RFU, BRD1 / Fold change vs veh, BRD1 / RFU, MARS / Fold change vs veh, MARS / RFU, ZNF655 / Fold change vs veh, ZNF655 / RFU, FAHD1 / Fold change vs veh, FAHD1 / RFU, BDP1 / Fold change vs veh, BDP1 / RFU, LRRCC1 / Fold change vs veh, LRRCC1 / RFU, ARID1A / Fold change vs veh, ARID1A / RFU, ZNF146 / Fold change vs veh, ZNF146 / RFU, ZNF330 / Fold change vs veh, ZNF330 / RFU, GPN3 / Fold change vs veh, GPN3 / RFU, C9orf123 / Fold change vs veh, C9orf123 / RFU, N4BP2L2 / Fold change vs veh, N4BP2L2 / RFU, ARFIP1 / Fold change vs veh, ARFIP1 / RFU, FAM179B / Fold change vs veh, FAM179B / RFU, BCL10 / Fold change vs veh, BCL10 / RFU, UHRF1BP1L / Fold change vs veh, UHRF1BP1L / RFU, BET1 / Fold change vs veh, BET1 / RFU, CNOT2 / Fold change vs veh, CNOT2 / RFU, ZNF268 / Fold change vs veh, ZNF268 / Fold change vs veh, ZNF507 / RFU, DGCR2 / Fold change vs veh, DGCR2 / RFU, WDSUB1 / Fold change vs veh, WDSUB1 / Fold change vs veh, HSP90B1 /// MIR3652 / RFU, ADSS / Fold change vs veh, ADSS / RFU, GK / Fold change vs veh, GK / RFU, ZNF148 / Fold change vs veh, ZNF148 / RFU, TAF9 / Fold change vs veh, TAF9 / RFU, SLC1A5 / Fold change vs veh, SLC1A5 / RFU, SLMO2 / Fold change vs veh, SLMO2 / RFU, ABCC4 / Fold change vs veh, ABCC4 / RFU, LOC101060439 /// RAP1B / Fold change vs veh, LOC101060439 /// RAP1B / RFU, RFX7 / Fold change vs veh, RFX7 / RFU, GTPBP10 / Fold change vs veh, GTPBP10 / RFU, CNEP1R1 / Fold change vs veh, CNEP1R1 / RFU, BIVM-ERCC5 /// ERCC5 / Fold change vs veh, BIVM-ERCC5 /// ERCC5 / RFU, ILF3 / Fold change vs veh, ILF3 / RFU 11762660_at / Fold change /veh 11762660_at / RFU VCAN (11757783_s_at) / Fold change /veh VCAN (11757783_s_at) / RFU DDX43 (11728927_at) / Fold change /veh DDX43 (11728927_at) / RFU KRT8 (11758188_x_at) / Fold change /veh KRT8 (11758188_x_at) / RFU NKD1 (11759106_at) / Fold change /veh NKD1 (11759106_at) / RFU SRD5A1 (11742802_a_at) / Fold change /veh SRD5A1 (11742802_a_at) / RFU TPSAB1 /// TPSB2 (11721975_s_at) / Fold change /veh TPSAB1 /// TPSB2 (11721975_s_at) / RFU GSTM3 (11746129_a_at) / Fold change /veh GSTM3 (11746129_a_at) / RFU IL23R (11737362_x_at) / Fold change /veh IL23R (11737362_x_at) / RFU TMEM51 (11727254_a_at) / Fold change /veh TMEM51 (11727254_a_at) / RFU PIWIL2 (11732686_x_at) / Fold change /veh PIWIL2 (11732686_x_at) / RFU ORM1 (11744905_x_at) / Fold change /veh ORM1 (11744905_x_at) / RFU CCDC152 (11743942_at) / Fold change /veh CCDC152 (11743942_at) / RFU ECM1 (11717891_a_at) / Fold change /veh ECM1 (11717891_a_at) / RFU IL23R (11748794_a_at) / Fold change /veh IL23R (11748794_a_at) / RFU TNFAIP8L3 (11732012_x_at) / Fold change /veh TNFAIP8L3 (11732012_x_at) / RFU MBOAT4 (11741988_at) / Fold change /veh MBOAT4 (11741988_at) / RFU 11764193_at / Fold change /veh 11764193_at / RFU TMEM53 (11763286_at) / Fold change /veh TMEM53 (11763286_at) / RFU MAGEB2 (11727129_at) / Fold change /veh MAGEB2 (11727129_at) / RFU TMEM200A (11744735_a_at) / Fold change /veh TMEM200A (11744735_a_at) / RFU CCDC152 (11751479_a_at) / Fold change /veh CCDC152 (11751479_a_at) / RFU FAM211A (11726209_a_at) / Fold change /veh FAM211A (11726209_a_at) / RFU RGS16 (11746705_a_at) / Fold change /veh RGS16 (11746705_a_at) / RFU VCAN (11755009_s_at) / Fold change /veh VCAN (11755009_s_at) / RFU RHOB (11743442_s_at) / Fold change /veh RHOB (11743442_s_at) / RFU RGS16 (11720943_a_at) / Fold change /veh RGS16 (11720943_a_at) / RFU RGS16 (11720944_at) / Fold change /veh RGS16 (11720944_at) / RFU, VPS4B / Fold change vs veh, VPS4B / RFU, CREB1 / Fold change vs veh, CREB1 / RFU, DNAJC13 / Fold change vs veh, DNAJC13 / RFU, GNAQ / Fold change vs veh, GNAQ / RFU, CDK5R1 / Fold change vs veh, CDK5R1 / RFU, ZRANB3 / Fold change vs veh, ZRANB3 / RFU, CUL4A / Fold change vs veh, CUL4A / RFU, CCNY / Fold change vs veh, CCNY / RFU, UFL1 / Fold change vs veh, UFL1 / RFU, COG3 / Fold change vs veh, COG3 / RFU, DIAPH2 / Fold change vs veh, DIAPH2 / RFU, SKA2 / Fold change vs veh, SKA2 / RFU, AFF3 / Fold change vs veh, AFF3 / RFU, LMF1 / Fold change vs veh, LMF1 / RFU, IPO11 / Fold change vs veh, IPO11 / RFU, DFFB / Fold change vs veh, DFFB / RFU, FOXP1 / Fold change vs veh, FOXP1 / RFU, CARD8 / Fold change vs veh, CARD8 / RFU, STRN3 / Fold change vs veh, STRN3 / RFU, ADK / Fold change vs veh, ADK / RFU, RASSF2 / Fold change vs veh, RASSF2 / RFU, WIPF1 / Fold change vs veh, WIPF1 / RFU, LARP1B / Fold change vs veh, LARP1B / RFU, RASA1 / Fold change vs veh, RASA1 / RFU, RB1 / Fold change vs veh, RB1 / RFU, PPFIA1 / Fold change vs veh, PPFIA1 / RFU, MAT2A / Fold change vs veh, MAT2A / RFU, CCT5 / Fold change vs veh, CCT5 / RFU, WDR92 / Fold change vs veh, WDR92 / RFU, CUX1 / Fold change vs veh, CUX1 / RFU, TTC7A / Fold change vs veh, TTC7A / RFU, TMEM135 / Fold change vs veh, TMEM135 / RFU, DEPTOR / Fold change vs veh, DEPTOR / RFU, CPM / Fold change vs veh, CPM / RFU, DNAJB6 / Fold change vs veh, DNAJB6 / RFU, CACNA2D3 / Fold change vs veh, CACNA2D3 / RFU, DTX4 / Fold change vs veh, DTX4 / RFU, TFCP2 / Fold change vs veh, TFCP2 / RFU, GMCL1 /// GMCL1P1 / Fold change vs veh, GMCL1 /// GMCL1P1 / RFU, AEBP2 / Fold change vs veh, AEBP2 / RFU, SNHG1 /// SNORD22 /// SNORD25 /// SNORD26 /// SNORD27 /// SNORD28 /// SNORD29 /// SNORD31 / Fold change vs veh, SNHG1 /// SNORD22 /// SNORD25 /// SNORD26 /// SNORD27 /// SNORD28 /// SNORD29 /// SNORD31 / Fold change (Aza/veh), C12orf56 (ProbeSet 11735607_a_at) / Fold change (ACY-1035/veh), C12orf56 (ProbeSet 11735607_a_at) / Fold change (Aza/veh), FGFR1OP (ProbeSet 11751329_s_at) / Fold change (ACY-1035/veh), FGFR1OP (ProbeSet 11751329_s_at) / Fold change (Aza/veh), VPS36 (ProbeSet 11739960_a_at) / Fold change (ACY-1035/veh), VPS36 (ProbeSet 11739960_a_at) / RFU SYPL1 (11715823_x_at) / Fold change /veh SYPL1 (11715823_x_at) / RFU IGFBP7 (11715501_s_at) / Fold change /veh IGFBP7 (11715501_s_at) / RFU REEP3 (11722064_at) / Fold change /veh REEP3 (11722064_at) / RFU IGLL1 (11728026_x_at) / Fold change /veh IGLL1 (11728026_x_at): dose or concentration left out as unconfirmed
Settings: ProbeSet 11753616_s_at; LIST B

With `Nc1ncn([C@@H]2O[C@H](CO)[C@@H](O)[C@H]2O)c(=O)n1` [azacitidine] the “Fold change vs veh, ARL8B” value was 0.84.
